Assay [1] concerns PCP site within the NMDAR channel.
Description: (§3) The reaction was terminated by vacuum filtration using a 24 well cell harvester (Brandel, Gaithersburg, MD) over presoaked GF/B glass fiber filters (Brandel, Gaithersburg, MD). Filters were washed with room temperature assay buffer (3 x 5 mL). […] IC50 values were determined in Graphpad Prism 5.0 using non-linear regression with log-concentration plotted against percent specific binding. […] Ki values were calculated using the equation of Cheng and Prusoff [24]. […] Protein concentration was determined via the Bradford method using Coomassie protein assay reagent (Sigma, USA) [25] with rat albumin (Sigma, USA) as standard. Experiments were performed in duplicate and repeated a minimum of three times.
Assay [2] shares this test system. Nature of the assay: NMDAR binding, [3H]-MK-801 displacement in rat forebrain homogenate.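 As to all read-outs here: IC50 by nonlinear regression of percent specific binding versus log concentration, Ki from IC50 via Cheng-Prusoff, raw counts in CPM, duplicates repeated at least three times.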 The following applies: for [3H]-MK-801 binding counts (Count1-3): raw counts, three counts; for Ki: read-out: Ki ± SEM, [3H]-(+)-MK-801, rat forebrain, Cheng-Prusoff.
Description: as §3
In assay [3] the target is NMDAR. The note with it: [3H]-MK-801, rat cortex and hippocampus membranes; read-out: NMDAR affinity; cited from earlier work.
A further assay relates to NMDA receptor. Description: NMDA receptor-mediated fEPSP (NMDAR-fEPSP) in CA1 of hippocampal slices. It is filed as cell-based, rat. The note with it: 10 μM. Here is the method: Male Wistar rats (Crl:Wi; Charles River, UK) aged 9–10 wk were sacrificed by neck vertebral dislocation (schedule 1 method) according to the United Kingdom (Scientific Procedures) Act of 1986. […] The brain was cut parasagittally into 400 μm sections and hippocampal slices were removed, stored and placed in a submerged recording chamber at 28–30°C. Recordings of synaptic activity were made, analyzed and presented as described. A bipolar electrode was used to deliver stimuli (0.03 Hz) to the Schaffer collateral pathway to enable recording of field excitatory synaptic potentials (fEPSPs) using a glass microelectrode positioned in the stratum radiatum of area CA1. […] After 30 min of stable control responses, 1 and 10 μM solutions of the individual compounds were added to the perfusate for 3–12 h while recording the amplitude and area of the NMDAR-fEPSP on-line using WinLTP [31]. Single exponential curves were fitted to the graphs and curves extrapolated to show likely half-times and minimum plateau responses achieved with each concentration of the compounds. Raw data for all fEPSP experiments are provided as supporting information (S2, S3 and S4 Files).

Another assay concerns the target M4 (Homo sapiens, UniProt P08173). Description: NIMH PDSP radioligand binding, M4.
In another assay the target is M5 (Homo sapiens, UniProt P08912). Nature of the assay: NIMH PDSP radioligand binding, M5.
Chain of M5 (P08912 whole entry): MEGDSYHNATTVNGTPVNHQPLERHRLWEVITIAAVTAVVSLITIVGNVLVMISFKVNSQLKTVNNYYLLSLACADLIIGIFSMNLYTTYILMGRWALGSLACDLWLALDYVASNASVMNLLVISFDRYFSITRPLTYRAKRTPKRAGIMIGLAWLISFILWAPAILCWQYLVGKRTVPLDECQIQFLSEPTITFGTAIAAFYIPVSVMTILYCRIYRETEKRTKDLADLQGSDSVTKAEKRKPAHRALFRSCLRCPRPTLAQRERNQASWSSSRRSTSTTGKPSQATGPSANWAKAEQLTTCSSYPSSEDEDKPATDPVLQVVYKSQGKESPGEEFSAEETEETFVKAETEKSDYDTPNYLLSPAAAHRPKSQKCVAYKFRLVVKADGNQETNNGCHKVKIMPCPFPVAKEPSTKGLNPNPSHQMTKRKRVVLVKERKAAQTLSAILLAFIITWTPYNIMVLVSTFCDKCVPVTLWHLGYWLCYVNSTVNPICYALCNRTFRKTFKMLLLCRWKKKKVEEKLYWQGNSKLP
In a further assay the target is M1 (Homo sapiens, UniProt P11229). Description: NIMH PDSP radioligand binding, M1.
Chain of M1 (P11229 whole entry): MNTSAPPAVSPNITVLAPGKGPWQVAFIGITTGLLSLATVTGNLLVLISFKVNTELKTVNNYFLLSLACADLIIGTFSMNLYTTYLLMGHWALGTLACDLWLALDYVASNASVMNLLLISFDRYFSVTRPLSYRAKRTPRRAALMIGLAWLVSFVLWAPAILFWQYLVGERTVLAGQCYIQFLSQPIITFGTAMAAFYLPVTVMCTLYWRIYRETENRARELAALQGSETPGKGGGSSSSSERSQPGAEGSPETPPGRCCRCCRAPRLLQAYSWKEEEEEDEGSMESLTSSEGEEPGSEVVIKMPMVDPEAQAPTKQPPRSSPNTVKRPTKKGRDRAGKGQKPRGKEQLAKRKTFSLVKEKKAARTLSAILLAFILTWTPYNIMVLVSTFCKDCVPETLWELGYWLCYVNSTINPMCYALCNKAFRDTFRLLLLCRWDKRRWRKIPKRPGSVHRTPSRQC
A further assay has as its target T1, Alpha2C (Homo sapiens, UniProt P18825).
T1 sequence (P18825 1-462): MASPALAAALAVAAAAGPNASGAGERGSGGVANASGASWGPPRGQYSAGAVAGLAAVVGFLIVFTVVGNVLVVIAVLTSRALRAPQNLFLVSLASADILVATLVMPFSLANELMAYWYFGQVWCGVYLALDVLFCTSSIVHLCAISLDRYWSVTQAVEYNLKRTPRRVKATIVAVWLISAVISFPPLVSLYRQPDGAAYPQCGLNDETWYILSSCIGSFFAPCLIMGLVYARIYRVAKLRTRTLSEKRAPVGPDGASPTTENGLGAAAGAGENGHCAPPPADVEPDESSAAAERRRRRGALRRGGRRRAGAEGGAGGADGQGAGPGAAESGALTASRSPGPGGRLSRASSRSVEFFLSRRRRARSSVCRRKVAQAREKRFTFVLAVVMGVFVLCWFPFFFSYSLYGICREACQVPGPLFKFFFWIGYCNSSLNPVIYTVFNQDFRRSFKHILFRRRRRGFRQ
Description: NIMH PDSP radioligand binding, Alpha2C. Here is the method: (§1) Radioligands and concentrations used for additional 45 CNS receptor binding assays are listed as supporting information (S1 Table). This work was performed by the National Institute of Mental Health Psychoactive Drug Screening Program (NIMH PDSP) as described previously.[26] Briefly target compounds were dissolved in DMSO and subjected to a primary screen at 10,000 nM concentration. […] Additional experimental details are available in the NIMH PDSP assay protocol book.

A further assay concerns the target MOR (Homo sapiens, UniProt P35372). Nature of the assay: NIMH PDSP radioligand binding, MOR. The protocol: as §1
Assay [4] deals with T2, DAT (Homo sapiens, UniProt Q01959). Description: NIMH PDSP radioligand binding, DAT. Here is the method: as §1
T2 sequence (Q01959 whole entry): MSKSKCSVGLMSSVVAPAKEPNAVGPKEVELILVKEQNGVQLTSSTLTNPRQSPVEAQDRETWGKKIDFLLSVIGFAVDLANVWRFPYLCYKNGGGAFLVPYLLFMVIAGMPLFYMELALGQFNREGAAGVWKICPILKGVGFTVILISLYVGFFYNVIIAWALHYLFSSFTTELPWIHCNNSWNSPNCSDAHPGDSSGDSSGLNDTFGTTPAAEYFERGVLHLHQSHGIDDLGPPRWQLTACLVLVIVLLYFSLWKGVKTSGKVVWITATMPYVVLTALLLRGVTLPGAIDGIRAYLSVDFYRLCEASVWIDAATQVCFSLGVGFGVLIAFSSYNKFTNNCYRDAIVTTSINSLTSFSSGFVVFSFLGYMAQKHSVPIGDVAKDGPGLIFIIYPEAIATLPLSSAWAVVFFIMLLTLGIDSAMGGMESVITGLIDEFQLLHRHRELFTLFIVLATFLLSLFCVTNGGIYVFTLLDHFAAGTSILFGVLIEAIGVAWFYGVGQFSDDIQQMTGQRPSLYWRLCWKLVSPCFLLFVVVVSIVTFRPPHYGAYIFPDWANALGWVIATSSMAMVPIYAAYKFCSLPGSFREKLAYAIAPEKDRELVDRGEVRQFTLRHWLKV
The target in a further assay is Alpha2A (Homo sapiens, UniProt P08913). Description: NIMH PDSP radioligand binding, Alpha2A. The protocol: as §1
In a further assay the target is M3 (Homo sapiens, UniProt P20309). Nature of the assay: NIMH PDSP radioligand binding, M3.
Chain of M3 (P20309 whole entry): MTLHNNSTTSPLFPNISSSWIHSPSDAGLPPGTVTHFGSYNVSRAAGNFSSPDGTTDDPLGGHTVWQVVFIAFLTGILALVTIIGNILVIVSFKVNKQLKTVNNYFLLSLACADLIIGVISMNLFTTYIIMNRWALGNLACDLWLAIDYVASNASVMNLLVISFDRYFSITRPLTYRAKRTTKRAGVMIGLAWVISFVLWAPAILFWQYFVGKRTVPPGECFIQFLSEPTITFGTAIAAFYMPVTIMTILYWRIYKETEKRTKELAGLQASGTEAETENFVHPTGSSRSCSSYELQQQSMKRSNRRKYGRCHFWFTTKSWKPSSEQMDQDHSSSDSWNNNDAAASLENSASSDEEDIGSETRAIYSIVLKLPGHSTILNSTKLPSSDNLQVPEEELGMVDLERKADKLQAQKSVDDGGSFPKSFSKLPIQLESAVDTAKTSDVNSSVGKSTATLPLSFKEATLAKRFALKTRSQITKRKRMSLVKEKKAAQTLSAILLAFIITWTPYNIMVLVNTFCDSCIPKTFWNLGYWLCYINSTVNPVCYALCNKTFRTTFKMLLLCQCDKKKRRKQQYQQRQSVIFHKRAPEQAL
For assay [5], the system named is NMDAR. Set-up: method as in earlier work. The note with it: [3H]-TCP; cited from earlier work.
The target of another assay is T3, Sigma 2 (Rattus norvegicus, UniProt Q5U3Y7).
T3 sequence (Q5U3Y7 1-176): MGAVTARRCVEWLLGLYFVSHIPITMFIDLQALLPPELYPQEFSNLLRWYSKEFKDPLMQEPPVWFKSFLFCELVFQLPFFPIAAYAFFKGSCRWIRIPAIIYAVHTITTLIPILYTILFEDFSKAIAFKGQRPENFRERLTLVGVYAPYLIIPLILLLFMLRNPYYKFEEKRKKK
Nature of the assay: NIMH PDSP radioligand binding, Sigma 2. The protocol:
as §1

The target in another assay is T4, Human SERT (Homo sapiens, UniProt P31645).
T4 construct: expressed in transfected cells; host or cells: HEK293
T4 sequence (P31645 whole entry): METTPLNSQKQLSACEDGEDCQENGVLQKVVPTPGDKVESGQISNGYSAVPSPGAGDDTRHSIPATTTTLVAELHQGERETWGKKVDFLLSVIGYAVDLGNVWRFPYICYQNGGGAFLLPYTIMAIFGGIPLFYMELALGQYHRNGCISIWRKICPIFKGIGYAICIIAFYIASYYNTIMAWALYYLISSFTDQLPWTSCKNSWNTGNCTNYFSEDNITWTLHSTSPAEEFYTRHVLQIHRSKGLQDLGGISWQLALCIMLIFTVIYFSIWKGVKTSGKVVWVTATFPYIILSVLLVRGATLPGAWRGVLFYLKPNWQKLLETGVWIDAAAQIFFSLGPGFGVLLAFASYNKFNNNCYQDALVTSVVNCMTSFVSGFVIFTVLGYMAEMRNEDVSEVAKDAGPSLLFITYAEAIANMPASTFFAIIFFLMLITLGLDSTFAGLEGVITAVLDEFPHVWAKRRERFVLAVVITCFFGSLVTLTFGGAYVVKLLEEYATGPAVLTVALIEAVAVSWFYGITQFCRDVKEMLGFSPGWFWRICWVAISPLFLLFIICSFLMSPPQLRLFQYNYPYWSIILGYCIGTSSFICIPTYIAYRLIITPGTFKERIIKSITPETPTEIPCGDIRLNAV
Nature of the assay: Monoamine reuptake inhibition assay, SERT in HEK293 cells. Type of assay: cell-based. Here is the method:
(§2) Monoamine reuptake inhibition assays were performed via the NIMH PDSP as previously described.[28] In brief, the neurotransmitter transporter uptake assay kit (R8174) (Molecular Devices) was used. Human monoamine transporters (DAT, NET and SERT) were stably expressed in HEK293 cells. Assay buffer consisted of 20 mM HEPES, 1x HBSS at pH 7.4. Cells were plated in Pol-L-Lys (PLL) coated 384-well black clear bottom cell culture plates with a density of 15,000 cells/well. Cells were incubated for at least 6 h prior to assay. Media was removed and replaced with 20 μL assay buffer and 5 μL of drug or positive control (cocaine or nisoxetine) as a 5X stock. Cells were incubated for 30 min at 37°C. 25 μL of dye solution was then added and following an additional 30 min incubation (at 37°C) fluorescence intensity was measured using a FlexStation II (bottom read mode, excitation wavelength = […], emission = 520 nM with a cutoff of 510 nM). […] Additional details are available in the NIMH PDSP assay protocol book.

The target in assay [6] is T5, NET (Homo sapiens, UniProt P23975). Description: Monoamine reuptake inhibition assay, NET in HEK293 cells. It is filed as cell-based. The note with it: for Hill slope NET reuptake inhibition: HEK293 cells. Set-up: expressed in transfected cells; host or cells: HEK293. Here is the method: as §2
T5 sequence (P23975 whole entry): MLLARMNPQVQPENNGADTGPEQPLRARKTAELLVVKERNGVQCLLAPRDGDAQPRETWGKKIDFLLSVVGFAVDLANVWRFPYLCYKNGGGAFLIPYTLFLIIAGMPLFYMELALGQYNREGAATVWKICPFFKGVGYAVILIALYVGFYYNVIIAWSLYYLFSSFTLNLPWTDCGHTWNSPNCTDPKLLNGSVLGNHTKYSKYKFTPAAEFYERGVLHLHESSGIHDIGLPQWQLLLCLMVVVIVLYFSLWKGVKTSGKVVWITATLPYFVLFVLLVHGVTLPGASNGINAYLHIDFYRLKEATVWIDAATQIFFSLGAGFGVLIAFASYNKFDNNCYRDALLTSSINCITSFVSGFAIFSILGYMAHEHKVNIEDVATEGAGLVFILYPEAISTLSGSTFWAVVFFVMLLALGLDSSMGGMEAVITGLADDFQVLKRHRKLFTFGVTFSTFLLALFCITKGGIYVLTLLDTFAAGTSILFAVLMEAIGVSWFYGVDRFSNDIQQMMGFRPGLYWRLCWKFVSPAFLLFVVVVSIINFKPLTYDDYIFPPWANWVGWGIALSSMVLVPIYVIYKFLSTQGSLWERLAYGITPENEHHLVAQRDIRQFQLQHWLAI
A further assay concerns the target M2 (Homo sapiens, UniProt P08172). Nature of the assay: NIMH PDSP radioligand binding, M2.
The target of another assay is KOR (Homo sapiens, UniProt P41145). Nature of the assay: NIMH PDSP radioligand binding, KOR. The protocol: as §1
Chain of KOR (P41145 whole entry): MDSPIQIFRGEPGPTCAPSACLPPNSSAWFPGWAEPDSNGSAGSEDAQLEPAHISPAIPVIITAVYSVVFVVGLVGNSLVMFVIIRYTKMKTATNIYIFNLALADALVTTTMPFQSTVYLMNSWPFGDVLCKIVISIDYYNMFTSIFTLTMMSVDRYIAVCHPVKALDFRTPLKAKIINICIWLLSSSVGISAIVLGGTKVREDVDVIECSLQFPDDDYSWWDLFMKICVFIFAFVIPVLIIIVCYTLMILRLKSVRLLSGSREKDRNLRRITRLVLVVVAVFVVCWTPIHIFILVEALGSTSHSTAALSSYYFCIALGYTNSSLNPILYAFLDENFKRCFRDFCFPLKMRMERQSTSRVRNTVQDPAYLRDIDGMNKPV
The target of assay [7] is T2, DAT. Nature of the assay: Monoamine reuptake inhibition assay, DAT in HEK293 cells. The following applies: for Hill slope DAT reuptake inhibition: HEK293 cells. Further details: expressed in transfected cells; host or cells: HEK293. Type of assay: cell-based. The protocol: as §2
Another assay has as its target H1 (Homo sapiens, UniProt P35367). Description: NIMH PDSP radioligand binding, H1. The protocol:
as §1

The target in assay [8] is T5, NET. Nature of the assay: NIMH PDSP radioligand binding, NET. Here is the method:
as §1

The target in the next assay is H3 (Homo sapiens, UniProt Q9Y5N1). Nature of the assay: NIMH PDSP radioligand binding, H3. Here is the method:
as §1

Values joined by “and” are separate entries in the source; they are usually repeats but may differ in a detail not shown here. Equal values may be shown once. Where a name gives a salt, the structure may show the parent alone.

Broadly, the IC50 is the concentration needed to halve the response being measured.

Chain of M2 (P08172 whole entry): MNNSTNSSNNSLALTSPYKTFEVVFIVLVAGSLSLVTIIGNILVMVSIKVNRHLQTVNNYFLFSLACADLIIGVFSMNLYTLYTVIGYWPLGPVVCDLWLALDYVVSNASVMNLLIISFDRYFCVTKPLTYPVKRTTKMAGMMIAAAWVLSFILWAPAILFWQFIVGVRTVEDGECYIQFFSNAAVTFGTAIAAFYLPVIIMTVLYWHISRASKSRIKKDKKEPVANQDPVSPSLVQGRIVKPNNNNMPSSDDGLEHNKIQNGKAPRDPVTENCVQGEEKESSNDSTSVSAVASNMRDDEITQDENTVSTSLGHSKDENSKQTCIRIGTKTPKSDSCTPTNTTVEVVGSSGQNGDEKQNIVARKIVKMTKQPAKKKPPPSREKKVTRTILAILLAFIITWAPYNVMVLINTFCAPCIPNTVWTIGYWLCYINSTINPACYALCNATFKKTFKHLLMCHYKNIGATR
Chain of H3 (Q9Y5N1 whole entry): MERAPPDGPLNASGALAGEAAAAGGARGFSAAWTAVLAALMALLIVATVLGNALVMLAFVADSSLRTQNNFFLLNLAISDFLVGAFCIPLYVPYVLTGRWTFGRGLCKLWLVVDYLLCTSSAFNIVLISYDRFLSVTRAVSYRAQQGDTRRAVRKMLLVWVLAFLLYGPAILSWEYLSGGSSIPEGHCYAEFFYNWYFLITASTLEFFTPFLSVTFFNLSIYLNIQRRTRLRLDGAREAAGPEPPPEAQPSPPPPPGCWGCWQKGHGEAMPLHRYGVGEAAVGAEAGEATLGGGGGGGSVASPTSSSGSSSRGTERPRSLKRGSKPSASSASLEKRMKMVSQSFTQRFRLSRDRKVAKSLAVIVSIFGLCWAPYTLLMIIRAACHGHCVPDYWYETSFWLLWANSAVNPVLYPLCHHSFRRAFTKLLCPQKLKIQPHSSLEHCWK

Regarding `CC12CC3CC(C)(C1)CC(N)(C3)C2` [Memantine, memantine hydrochloride], in assay [1], the IC50 came out at 594 ± 41.3 nM. Also, the “[3H]-MK-801 binding counts (Count1-3)” value was 54.75 and 56.13 and 57.01 in assay [2] (Assay 6, memantine concentration 1.00E-04); 80 and 85.76 and 84.26 in assay [2] (Assay 6, memantine concentration 1.00E-05); 302 and 309.15 and 302.79 in assay [2] (Assay 6, memantine concentration 1.00E-06); 630.88 and 668.92 and 629.83 in [2] (Assay 6, memantine concentration 1.00E-07); 740.13 and 745.68 and 749.23 in assay [2] (Assay 6, memantine concentration 1.00E-08); 755.01 and 781.68 and 787.36 in assay [2] (Assay 6, memantine concentration 1.00E-09). Besides, the “[3H]-MK-801 binding counts (Count1-3)” value was 758.88 and 769.56 and 771.23 in assay [2] (Assay 6, memantine concentration 1.00E-10); 49.38 and 49.13 and 46.88 in [2] (Assay 6 duplicate, memantine concentration 1.00E-04); 91.38 and 89.51 and 86.76 in assay [2] (Assay 6 duplicate, memantine concentration 1.00E-05); 307.63 and 313.65 and 307.54 in assay [2] (Assay 6 duplicate, memantine concentration 1.00E-06); 637.88 and 639.55 and 638.34 in assay [2] (Assay 6 duplicate, memantine concentration 1.00E-07); 730.14 and 762.94 and 750.86 in assay [2] (Assay 6 duplicate, memantine concentration 1.00E-08). In addition, the “[3H]-MK-801 binding counts (Count1-3)” value in assay [2] (Assay 6 duplicate, memantine concentration 1.00E-09) was 757.26 and 761.06 and 761.99; in assay [2] (Assay 6 duplicate, memantine concentration 1.00E-10), 762.51 and 773.44 and 773.61. In addition, the Ki in assay [2] was 378 ± 26.3 nM.

Turning to `c1ccc(C[C@@H](c2ccccc2)N2CCCCC2)cc1` [(S-)-DPH], the Ki on NMDAR [3] was 120 nM.

For the compound `NC(CCCP(=O)(O)O)C(=O)O` [D-AP5, reference compound], the “small persistent deflection remaining of the NMDAR-fEPSP” value with NMDA receptor was < 20%.

For `Clc1ccccc1C(Cc1ccccc1)N1CCCCC1` (centres unmarked) [2-Cl-DPH, 2-Cl-diphenidine], the Ki was 828 nM on M4; 291 nM at M5; 278 nM on M1; 1820 nM at Alpha2C; 2060 nM on MOR; 357 nM on DAT [4]. The Ki on Alpha2A came to 2690 nM; on M3 it was 615 nM; on Sigma 2, 474 nM; in assay [2], 9.3 ± 1.3 nM; on M2, 910 nM; at KOR, 642 nM. In addition, on M1 (less than for NMDAR), the “affinities at muscarinic sites relative to NMDAR” value turned out to be 30 fold. Further, the concentration for half-maximal inhibition (IC50) in assay [1] was 14.6 ± 2.1 nM; at Human SERT it was > 10000 nM; against NET [6], 27100 nM; against DAT [7], 10500 nM. Moreover, the NMDAR affinity result in the assay with NMDAR [5] is given as “pM affinity”. Further, at NET [6], the “Hill slope NET reuptake inhibition” value is 1.02. Besides, the “Hill slope DAT reuptake inhibition” value at DAT [7] is recorded as 0.65.

For `COc1cccc(C(Cc2ccccc2)N2CCCCC2)c1` (centres unmarked) [3-MXP, 3-methoxy-diphenidine], the Ki at M5 came out at 1120 nM; at M1, 2400 nM; on DAT [4], 88 nM; on M3 it was 2300 nM; on Sigma 2 it was 633 nM; on H1 it was 2030 nM. In addition, the Ki was found to be 325 nM on NET [8]; 19.3 ± 1.7 nM in [2]; 2970 nM at M2; 2260 nM at KOR; 1470 nM on H3. In addition, the half-inhibitory concentration (IC50) in assay [1] was 30.3 ± 2.6 nM; on Human SERT it was > 10000 nM; against NET [6] it was 2710 nM; against DAT [7], 587 nM. Further, the “Hill slope NET reuptake inhibition” value at NET [6] is listed as 0.95. At DAT [7], the “Hill slope DAT reuptake inhibition” value came out at 0.92.

Take `COc1ccc(C(Cc2ccccc2)N2CCCCC2)cc1` (centres unmarked) [4-MXP, 4-methoxy-diphenidine]: the Ki on M5 was 2760 nM; at M1, 2430 nM; at Alpha2C it was 2510 nM; on DAT [4], 157 nM; at M3 it was 2400 nM; at Sigma 2 it was 564 nM. Further, the Ki at H1 stood at 4530 nM; on NET [8], 2700 nM; in assay [2] it was 461 ± 44.5 nM; at M2 it was 1620 nM; at H3, 556 nM. The “affinity at DAT relative to NMDAR” value on DAT [4] (higher at DAT) is ~ 2.5 fold. The IC50 worked out at 724 ± 69.9 nM in [1], 19000 nM at Human SERT, 22500 nM against NET [6] and 2230 nM on DAT [7]. Moreover, the “Hill slope SERT reuptake inhibition” value on Human SERT (HEK293 cells) was 1.12. The “Hill slope NET reuptake inhibition” value at NET [6] was 1.75. In addition, at DAT [7], the “Hill slope DAT reuptake inhibition” value came to 0.96.

Regarding `c1ccc(C[C@H](c2ccccc2)N2CCCCC2)cc1` [(R)-DPH], the Ki on NMDAR [3] was 5250 nM.

Take `CNC1(c2ccccc2Cl)CCCCC1=O` (centres unmarked) [Ketamine, ketamine, reference compound]: in [1], 508 ± 30.1 nM corresponded to half-maximal inhibition (IC50). In assay [2], the Ki came out at 324 ± 19.2 nM.

These data come from article PMC4912077 (PLoS ONE, 2016).
